Results as given in US10077261B2, “Imidazolin-5-one derivative useful as FASN inhibitors for the treatment of cancer” (Janssen Pharmaceutica NV, priority 2012, dated 2018).
pIC50: −log10 of the molar value.

Columns and labels:
[1] = test system: LNCaP-Vancouver prostate cells; assay: In vitro LNCaP Vancouver prostate cell proliferation assay in lipid reduced medium; assay type: cell-based; conditions: read-out: pIC50 LNCaP_Vancouver prostate cell (converted)
[2] = target: T1, hFASN enzyme (full length) (Homo sapiens, UniProt P49327); assay: Fatty Acid Synthase (FASN) inhibition scintillation proximity assay; assay type: biochemical; conditions: for inhibition at 10 µM: read-out: Human FASN % inhibition @ 10 μM, 10 μM test compound; for IC50: read-out: Human FASN pIC50 (converted)
T1 construct: 10 μL hFASN enzyme (full length, 300 ng, purified in house); made in house
Summary of the method: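 Scintillation proximity format: in-house full-length enzyme, 300 ng per well, pH 7.5 phosphate/DTT buffer, ³H-acetyl-CoA and malonyl-CoA. Emission counted on LEADseeker at 610 nm at least 24 h after stopping.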

[3] = test system: PC-3M-Luc-C6 prostate cells; assay: In vitro PC-3M-Luc-C6 prostate cell proliferation assay in lipid reduced medium; assay type: cell-based; conditions: 96 h, read-out: pIC50 PC-3M-Luc-C6 prostate cell (converted)
A2780 ovarian cells [4] = assay: A2780 ovarian cell proliferation assay in lipid reduced medium, with palmitate (MTT); assay type: cell-based; conditions: Homo sapiens, A2780, 96 h; read-out: pIC50 A2780 Ovarian Cell, With Palmitate (converted)
Summary of the method: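 In this palmitate-supplemented format, compound dilutions (30 μM down to 0.01 μM) are added to cells in lipid-reduced serum with 25 μM palmitate, 0.2% fatty-acid-free BSA and 0.25% ethanol. After four days (96 h) MTT absorbance at 544 nm is recorded and fitted by minimum sum of squares.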

A2780 ovarian cells [5] = assay: A2780 ovarian cell proliferation assay in lipid reduced medium, without palmitate (MTT); assay type: cell-based; conditions: Homo sapiens, A2780, 96 h; read-out: pIC50 A2780 Ovarian Cell, Without Palmitate (converted)
[6] = target: Fatty Acid Synthase Keto-reductase Domain (FASN KR) (Homo sapiens, UniProt P49327); assay: Fatty Acid Synthase keto-reductase domain (FASN KR) inhibition, NADPH oxidation at 340 nm
Chain of Fatty Acid Synthase Keto-reductase Domain (FASN KR) (P49327 whole entry, the tested form may be a part): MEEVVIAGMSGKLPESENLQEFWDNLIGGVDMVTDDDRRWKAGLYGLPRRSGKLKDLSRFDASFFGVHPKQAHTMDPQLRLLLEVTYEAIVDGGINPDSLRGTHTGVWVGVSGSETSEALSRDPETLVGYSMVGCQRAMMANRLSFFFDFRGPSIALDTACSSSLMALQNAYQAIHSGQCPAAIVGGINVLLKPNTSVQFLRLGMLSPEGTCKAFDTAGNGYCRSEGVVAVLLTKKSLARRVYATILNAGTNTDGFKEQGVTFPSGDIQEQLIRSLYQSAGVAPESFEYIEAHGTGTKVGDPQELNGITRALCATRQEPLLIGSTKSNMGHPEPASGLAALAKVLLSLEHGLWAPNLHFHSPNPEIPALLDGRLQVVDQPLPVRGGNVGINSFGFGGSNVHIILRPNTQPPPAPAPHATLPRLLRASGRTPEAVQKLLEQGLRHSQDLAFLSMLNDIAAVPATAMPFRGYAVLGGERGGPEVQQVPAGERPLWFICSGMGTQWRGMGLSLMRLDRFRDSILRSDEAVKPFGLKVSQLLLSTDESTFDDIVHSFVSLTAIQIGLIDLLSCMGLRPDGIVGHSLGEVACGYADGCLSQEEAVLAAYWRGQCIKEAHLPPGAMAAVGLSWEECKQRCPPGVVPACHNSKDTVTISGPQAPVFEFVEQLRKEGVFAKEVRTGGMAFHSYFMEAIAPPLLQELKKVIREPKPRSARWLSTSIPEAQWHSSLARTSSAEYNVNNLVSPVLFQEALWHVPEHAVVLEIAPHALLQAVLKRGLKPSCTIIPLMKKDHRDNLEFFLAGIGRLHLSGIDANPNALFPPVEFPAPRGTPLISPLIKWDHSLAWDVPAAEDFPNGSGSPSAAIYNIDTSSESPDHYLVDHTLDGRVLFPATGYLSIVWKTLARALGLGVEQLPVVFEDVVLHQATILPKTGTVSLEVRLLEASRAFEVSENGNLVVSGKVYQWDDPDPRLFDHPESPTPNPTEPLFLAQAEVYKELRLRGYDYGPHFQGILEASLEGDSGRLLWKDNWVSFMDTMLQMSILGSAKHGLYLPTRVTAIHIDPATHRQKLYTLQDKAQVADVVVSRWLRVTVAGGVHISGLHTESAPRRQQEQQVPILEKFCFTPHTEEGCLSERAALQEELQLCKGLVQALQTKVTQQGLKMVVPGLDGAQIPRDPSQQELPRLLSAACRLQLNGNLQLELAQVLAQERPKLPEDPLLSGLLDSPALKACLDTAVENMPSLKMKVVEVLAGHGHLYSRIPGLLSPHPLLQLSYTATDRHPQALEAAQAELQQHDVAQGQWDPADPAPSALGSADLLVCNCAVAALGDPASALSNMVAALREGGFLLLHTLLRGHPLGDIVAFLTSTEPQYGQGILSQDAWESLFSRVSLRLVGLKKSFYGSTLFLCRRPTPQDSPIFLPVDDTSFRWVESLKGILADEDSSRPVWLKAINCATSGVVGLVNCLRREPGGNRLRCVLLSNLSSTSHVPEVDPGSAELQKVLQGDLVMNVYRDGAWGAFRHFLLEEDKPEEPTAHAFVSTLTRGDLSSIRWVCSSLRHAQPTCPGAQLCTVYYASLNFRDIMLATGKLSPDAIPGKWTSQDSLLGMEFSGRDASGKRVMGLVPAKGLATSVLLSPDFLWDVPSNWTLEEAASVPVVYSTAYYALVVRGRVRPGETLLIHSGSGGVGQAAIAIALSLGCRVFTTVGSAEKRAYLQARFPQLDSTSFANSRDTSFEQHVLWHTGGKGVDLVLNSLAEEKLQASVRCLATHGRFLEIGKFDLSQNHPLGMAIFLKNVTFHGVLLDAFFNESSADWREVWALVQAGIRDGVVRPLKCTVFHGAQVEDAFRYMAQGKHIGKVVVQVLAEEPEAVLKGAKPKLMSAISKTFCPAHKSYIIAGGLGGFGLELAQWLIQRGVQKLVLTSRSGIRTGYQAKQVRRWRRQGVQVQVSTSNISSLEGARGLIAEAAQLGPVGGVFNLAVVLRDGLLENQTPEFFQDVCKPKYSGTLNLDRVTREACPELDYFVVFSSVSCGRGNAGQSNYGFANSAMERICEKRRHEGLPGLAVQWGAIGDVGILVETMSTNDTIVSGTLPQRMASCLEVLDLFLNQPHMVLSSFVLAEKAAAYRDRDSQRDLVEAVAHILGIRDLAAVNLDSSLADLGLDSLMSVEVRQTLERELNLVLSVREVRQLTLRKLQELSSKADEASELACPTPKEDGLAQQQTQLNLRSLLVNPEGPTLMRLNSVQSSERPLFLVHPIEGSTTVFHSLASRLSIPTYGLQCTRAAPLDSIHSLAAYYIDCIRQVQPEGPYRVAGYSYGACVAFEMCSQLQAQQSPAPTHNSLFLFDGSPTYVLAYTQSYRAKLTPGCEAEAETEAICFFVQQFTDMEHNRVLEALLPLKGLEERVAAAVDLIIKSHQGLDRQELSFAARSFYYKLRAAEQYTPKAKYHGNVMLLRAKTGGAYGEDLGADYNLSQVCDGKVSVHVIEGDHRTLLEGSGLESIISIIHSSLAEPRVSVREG
Procedure: After 20 minutes incubation at room temperature the plate was measured again (T2).
The decrease in absorbance was calculated as (Absorbance before incubation T1)−(Absorbance following incubation T2).
A plot of Controlmin versus test compound concentration was fitted to a 4-parameter logistic curve using a non-linear least squares regression method.

T1 sequence (P49327 whole entry): as the sequence (P49327 whole entry, the tested form may be a part) above

IC50 [1] | inhibition at 10 µM [2] | IC50 [2] | IC50 [3] | IC50 (A2780 ovarian cells [4]) | IC50 (A2780 ovarian cells [5]) | pIC50 [6] | SMILES
617 nM | 100% | 21.9 nM | 66.1 nM | > 10000 nM | 58.9 nM | 7.57 | O=C(C1CC1)N1CC[C@@H](CN2C(=O)C3(CC3)N=C2c2ccc(-c3ccc4sccc4c3)cc2)C1 [compound 298, (R)-5-(4-(benzo[b]thiophen-5-yl)phenyl)-6-((1-(cyclopropanecarbonyl)pyrrolidin-3-yl)methyl)-4,6-diazaspiro[2.4]hept-4-en-7-one]
2400 nM | 95% | 53.7 nM | ~417 nM | > 10000 nM | 832 nM | 7.02 | N#Cc1cc2cc(-c3ccc(C4=NC5(CC5)C(=O)N4C[C@@H]4CCN(C(=O)C5CC5)C4)cc3)ccc2o1 [compound 256, (R)-5-(4-(6-((1-(cyclopropanecarbonyl)pyrrolidin-3-yl)methyl)-7-oxo-4,6-diazaspiro[2.4]hept-4-en-5-yl)phenyl)benzofuran-2-carbonitrile]
1260 nM | 99% | 97.7 nM | 72.4 nM | > 10000 nM | 85.1 nM | 6.65 | Cc1cc(-c2cccc3[nH]ncc23)ccc1C1=NC2(CC2)C(=O)N1CC1CN(C(=O)C2CC2)C1 [compound 304, 5-(4-(1H-indazol-4-yl)-2-methylphenyl)-6-((1-(cyclopropanecarbonyl)azetidin-3-yl)methyl)-4,6-diazaspiro[2.4]hept-4-en-7-one]
93.3 nM | 101% | 28.8 nM | 18.2 nM | 6030 nM | 15.5 nM | 7.42 | Cc1cc(-c2ccc3cc(Cl)cnc3c2)ccc1C1=NC2(CC2)C(=O)N1CC1CN(C(=O)C2(C)CC2)C1 [compound 340, 5-(4-(3-chloroquinolin-7-yl)-2-methylphenyl)-6-((1-(1-methylcyclopropanecarbonyl)azetidin-3-yl)methyl)-4,6-diazaspiro[2.4]hept-4-en-7-one]
3890 nM | 95% | 316 nM | 813 nM | > 10000 nM | ~977 nM | 6.12 | CS(=O)(=O)N1CCC2(CC1)N=C(c1ccc(-c3ccc4[nH]ccc4c3)cc1)N(CC1CN(C(=O)C3CC3)C1)C2=O [compound 762, 3-{[1-(Cyclopropylcarbonyl)azetidin-3-yl]methyl}-2-[4-(1H-indol-5-yl)phenyl]-8-(methylsulfonyl)-1,3,8-triazaspiro[4.5]dec-1-en-4-one]
1700 nM | 100% | 191 nM | 479 nM | > 10000 nM | ~195 nM | 6.00 | O=C(C1CC1)N1CC(CN2C(=O)C3(CC3)N=C2c2ccc(-c3nc4cc(F)ccc4s3)cc2F)C1 [compound 638, 6-{[1-(Cyclopropylcarbonyl)azetidin-3-yl]methyl}-5-[2-fluoro-4-(5-fluoro-1,3-benzothiazol-2-yl)phenyl]-4,6-diazaspiro[2.4]hept-4-en-7-one]
85.1 nM | 101% | 16.2 nM | 37.2 nM | > 10000 nM | ~70.8 nM | 7.43 | O=C(C1CC1)N1CC[C@@H](CN2C(=O)C3(CC3)N=C2c2ccc(-c3ccc4cccc(F)c4c3)cc2F)C1 [compound 260, (R)-6-((1-(cyclopropanecarbonyl)pyrrolidin-3-yl)methyl)-5-(2-fluoro-4-(8-fluoronaphthalen-2-yl)phenyl)-4,6-diazaspiro[2.4]hept-4-en-7-one]
1230 nM | 94% | 324 nM | 794 nM | > 10000 nM | 550 nM | 6.20 | O=C(N1CCCC1)N1CC[C@@H](CN2C(=O)C3(CCOCC3)N=C2c2ccc(-c3ccc4cccnc4c3)cc2)C1 [compound 665, 3-{[(3S)-1-(Pyrrolidin-1-ylcarbonyl)pyrrolidin-3-yl]methyl}-2-(4-quinolin-7-ylphenyl)-8-oxa-1,3-diazaspiro[4.5]dec-1-en-4-one]

More lines, now with the values behind:

SMILES | IC50 [1] | inhibition at 10 µM [2] | IC50 [2] | IC50 [3] | IC50 (A2780 ovarian cells [4]) | IC50 (A2780 ovarian cells [5]) | pIC50 [6]
Cc1cc2cc(-c3ccc(C4=NC5(CC5)C(=O)N4C[C@@H]4CCN(C(=O)C5(O)CC5)C4)c(F)c3)ccc2o1 [compound 355, (R)-5-(2-fluoro-4-(2-methylbenzofuran-5-yl)phenyl)-6-((1-(1-hydroxycyclopropanecarbonyl)pyrrolidin-3-yl)methyl)-4,6-diazaspiro[2.4]hept-4-en-7-one] | 575 nM | 96% | 30.2 nM | 58.9 nM | > 10000 nM | 30.2 nM | 7.37
Cc1cc(-c2cccc3[nH]ncc23)ccc1C1=NC2(CC2)C(=O)N1C[C@@H]1CCN(C(=O)C2CC2)C1 [compound 306, (R)-5-(4-(1H-indazol-4-yl)-2-methylphenyl)-6-((1-(cyclopropanecarbonyl)pyrrolidin-3-yl)methyl)-4,6-diazaspiro[2.4]hept-4-en-7-one] | 513 nM | 98% | 50.1 nM | 17 nM | > 10000 nM | 17.8 nM | 6.98
Cc1cc(-c2ccc3cc(C#N)ccc3c2)ccc1C1=NC2(CC2)C(=O)N1CC1CN(C(=O)C2(F)CC2)C1 [compound 273, 6-(4-(6-((1-(1-fluorocyclopropanecarbonyl)azetidin-3-yl)methyl)-7-oxo-4,6-diazaspiro[2.4]hept-4-en-5-yl)-3-methylphenyl)-2-naphthonitrile] | 355 nM | 102% | 42.7 nM | 67.6 nM | 7940 nM | ~20.9 nM | 6.84
O=C(C1CC1)N1CC(CN2C(=O)C3(CC3)N=C2c2ccc(-c3nc4ccc(F)cc4s3)cc2F)C1 [compound 271, 6-((1-(cyclopropanecarbonyl)azetidin-3-yl)methyl)-5-(2-fluoro-4-(6-fluorobenzo[d]thiazol-2-yl)phenyl)-4,6-diazaspiro[2.4]hept-4-en-7-one] | 417 nM | 104% | 56.2 nM | 97.7 nM | > 10000 nM | ~74.1 nM | 6.78
Cc1cc(-c2ccc3oc(C)c(C)c3c2)ccc1C1=NC2(CC2)C(=O)N1CC1CN(C(=O)C2CC2)C1 [compound 398, 6-{[1-(Cyclopropylcarbonyl)azetidin-3-yl]methyl}-5-[4-(2,3-dimethyl-1-benzofuran-5-yl)-2-methylphenyl]-4,6-diazaspiro[2.4]hept-4-en-7-one] | 2340 nM | 102% | 263 nM | 1740 nM | > 10000 nM | ~2290 nM | 6.02
Cc1cc(-c2cccc3nn(C)cc23)ccc1C1=NC2(CC2)C(=O)N1CC1CN(C(=O)C2(C)CC2)C1 [compound 598, 6-({1-[(1-Methylcyclopropyl)carbonyl]azetidin-3-yl}methyl)-5-[2-methyl-4-(2-methyl-2H-indazol-4-yl)phenyl]-4,6-diazaspiro[2.4]hept-4-en-7-one] | 2340 nM | 103% | 209 nM | ~355 nM | > 10000 nM | 200 nM | 6.51
Cc1cc(-c2cccc(NS(=O)(=O)C3CC3)c2)ccc1C1=NC2(CC2)C(=O)N1CC1CN(C(=O)C2CC2)C1 [compound 578, N-[4′-(6-{[1-(Cyclopropylcarbonyl)azetidin-3-yl]methyl}-7-oxo-4,6-diazaspiro[2.4]hept-4-en-5-yl)-3′-methylbiphenyl-3-yl]cyclopropanesulfonamide] | 5010 nM | 92% | 646 nM | 871 nM | > 10000 nM | 331 nM | 5.81
O=C(C1CC1)N1CC[C@@H](CN2C(=O)C3(CC3)N=C2c2ccc(-c3cccc(S(=O)(=O)C4CC4)c3)cc2F)C1 [compound 647, 6-{[(3R)-1-(Cyclopropylcarbonyl)pyrrolidin-3-yl]methyl}-5-[3′-(cyclopropylsulfonyl)-3-fluorobiphenyl-4-yl]-4,6-diazaspiro[2.4]hept-4-en-7-one] | 5130 nM | 91% | 631 nM | 1740 nM | > 10000 nM | 1950 nM | 5.86
Cc1cc(-c2ccc(-c3cnn(C4CCC4)c3)cc2)ccc1C1=NC2(CC2)C(=O)N1CC1CN(C(=O)C2(C)CC2)C1 [compound 338, 5-(4′-(1-cyclobutyl-1H-pyrazol-4-yl)-3-methyl-[1,1′-biphenyl]-4-yl)-6-((1-(1-methylcyclopropanecarbonyl)azetidin-3-yl)methyl)-4,6-diazaspiro[2.4]hept-4-en-7-one] | 126 nM | 106% | 43.7 nM | 19.1 nM | ~4270 nM | 21.9 nM | 6.83
